{"source": "PubChem BioAssay AID624404", "about": "(Broad Institute, 2012)", "note": "Records with an inconclusive call do not appear."}
{"test_system": "D54 LucT luciferase reporter counterscreen, luminescence, 24 h", "test": "reporter signal increase, D54 LucT cells – cell-based, luminescence, cherry pick, counter-screen for N-linked glycosylation inhibitor project, dose response (AID 624404)", "units": {"AC35": "nM"}}
{"compound": "CC1(C)Cc2nc3sc4c(SCC(=O)NCc5ccccc5)ncnc4c3cc2CO1", "AC35": 15.7}
{"compound": "O=C(/C=C/c1cccc([N+](=O)[O-])c1)c1ccc2c(c1)OCCO2", "AC35": 247}
{"compound": "Cc1cccc(N2CCN(C(=O)c3ccc(Cl)c(S(=O)(=O)NCc4ccco4)c3)CC2)c1C", "AC35": 202}
{"compound": "COc1ccc(NC(=O)c2cc3c(=O)n(C)c4ccccc4c3n2C)cc1OC", "AC35": 4000}
{"compound": "Cc1cccc(N2CCN(C(=O)c3cc(S(=O)(=O)N4CCCC4)cn3C)CC2)c1C", "AC35": 33.3}
{"compound": "Nc1nc(-c2ccccc2)cc(-c2ccccc2O)n1", "AC35": 1760}
{"compound": "COC(=O)c1ccc(C(=O)NC2CC(C)(C)Cc3c2cnn3-c2ccc(F)cc2)nc1", "note": "(stereo not drawn)", "AC35": 3950}
{"compound": "NC(=O)c1cccc(-c2ccnc3c2CC(C(=O)NCc2ccccc2)O3)c1", "note": "(stereo not drawn)", "AC35": 283}
{"compound": "CCCCCCn1c(=O)n2n(c1=O)[C@@H]1CN(S(=O)(=O)c3ccc(C)cc3)C[C@]1(O)[C@@H](OC(=O)NCc1ccccc1)C2", "AC35": 717}
{"compound": "COc1ccc(Cl)cc1/C=C/c1ccc2cccc(O)c2n1", "AC35": 22.1}
{"compound": "O=C(Nc1ccccc1-c1ccccc1)C1CCCC1", "AC35": 1220}
{"compound": "O=C(/C=C/c1ccccc1Cl)c1ccc(O)cc1", "AC35": 201}
{"compound": "COc1cccc(/C=N/NC(=O)c2ccc(N3CCCC3=O)cc2)c1", "AC35": 733}
{"compound": "COc1ccc(CNC(=O)c2cccc3c(-c4cnn(C)c4)coc23)cc1OC", "AC35": 1300}
{"compound": "COc1ccc2c(c1)C(=O)N1[C@H]3c4cc(Cl)ccc4OC[C@@H]3[C@H](c3ccccc3)[C@]1(C)C(=O)N2", "AC35": 981}
{"compound": "O=C(NC1CCCC(C(F)(F)F)C1)c1ccc([N+](=O)[O-])o1", "note": "(stereo not drawn)", "AC35": 3970}
{"compound": "C[C@@]12C(=O)Nc3cc(Cl)ccc3C(=O)N1[C@H]1c3cc(Cl)ccc3OC[C@@H]1[C@@H]2c1ccccc1", "AC35": 1440}
{"compound": "O=c1[nH]c(-c2ccccc2)nc2sc(-c3ccccc3)cc12", "AC35": 188}
{"compound": "Cc1cc(NCCCn2ccnc2)n2nc(C)c(-c3ccccc3)c2n1", "AC35": 2290}
{"compound": "CN(C)CCCN(C(=O)c1ccc(S(=O)(=O)N2CCc3ccccc3C2)cc1)c1nc2ccc(F)cc2s1", "AC35": 5390}
{"compound": "COc1ccc(S(=O)(=O)NCc2ccccn2)cc1NC(=O)c1ccccc1C", "AC35": 3110}
{"compound": "O=C1COc2ccc(C(=O)/C=C/c3ccccc3)cc2N1", "AC35": 641}
{"compound": "CNC(=O)c1cccc(NC(=O)c2ccccc2OCc2ccccc2)c1", "AC35": 454}
{"compound": "COc1ccc(CNC(=O)c2cccc3c(-c4cccnc4)coc23)cc1OC", "AC35": 2600}
{"compound": "O=C(/C=C/c1cccc(Br)c1)c1ccc2c(c1)OCO2", "AC35": 951}
{"compound": "CSc1ncnc2c1ncn2CCCN[C@H](C)c1cccc2ccccc12", "AC35": 527}
{"compound": "CCN1C(=O)CCN(C2CCCC2)c2nc(Nc3ccc(C(=O)NC4CCN(C)CC4)cc3OC)ncc21", "AC35": 226}
{"compound": "CC(=O)NC(c1cccc(F)c1)c1nc(-c2ccccc2C)cs1", "note": "(stereo not drawn)", "AC35": 263}
{"compound": "Cc1ccc(SCC(=O)Nc2ccc(-c3nc4ccccc4[nH]3)cc2)cc1", "AC35": 337}
{"compound": "O=C(NCCN1C(=O)S/C(=C\\c2ccccc2F)C1=O)C1=COCCO1", "AC35": 214}
{"compound": "Cc1c(Cl)cccc1Nc1nc(N)nc(CN2CCc3ccccc3C2)n1", "AC35": 614}
{"compound": "CCCCNC(=O)c1cc(-c2ccc(F)cc2)on1", "AC35": 806}
{"compound": "O=C(COC(=O)Cn1cnc2ccccc21)Nc1cccc2c1C(=O)c1ccccc1C2=O", "AC35": 459}
